The record followed here is patent US20240279221A1, “HETEROCYCLIC COMPOUNDS AND METHODS OF USE” (Schrödinger, Inc., priority 2021, published 2024).

Test [1] concerns the target SOS1:KRAS (G12C) interaction (Homo sapiens (Human), UniProt Q07889). The test is described as follows: SOS1-KRas(G12C) FRET Assay. The test is classed as binding. The note with it: 0.5 nM His10-SOS1 (res. 564-1049), 2.5 nM GST-KRAS (res. 1-169, G12C); read-out: SOS-KRas(G12C) FRET IC50. In outline:
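Compounds were pre-incubated 15 min at 25° C with SOS1 (His10, res. 564-1049; 0.5 nM final) and anti-6His-XL665, then GST-KRAS G12C (res. 1-169; 2.5 nM final) with anti-GST-Eu(K) was added for 2 h at RT. The buffer was PBS, 0.1% BSA, 5 mM MgCl2, 100 mM KF, 5 mM DTT with 0.5% DMSO. The 665/615 nm signal was normalised to DMSO and no-SOS1 controls, and IC50 and Hill coefficient were fitted by non-linear regression.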

The target of test [2] is human SOS1 (Homo sapiens (Human), UniProt Q07889). The test is described as follows: Surface Plasmon Resonance (SPR) SOS1 Binding Assay. The settings on record: biotinylated SOS1 (res. 564-1049), 25° C., kinetic or steady state fit, read-out: KD for hSOS1. The procedure: Binding to SOS1 was measured using a SPR assay with purified recombinant human SOS1 substrate (res. 564-1049 with N-terminal Avi tag; purified and biotinylated based on Hillig, et al., Proc Natl Acad Sci USA (2019); 116(7):2551-2560). SPR measurements were performed on a Biacore 8K SPR instrument (GE Healthcare, Sweden). Assays were performed at 25° C. using Series S SA sensor chips pre-coated with streptavidin (GE Healthcare, Cat. BR100531). Biotinylated SOS1 diluted in sample buffer (20 mM Tris HCl, 150 mM NaCl, 1 mM DTT, 0.05% TWEEN 20, 1 mM MgCl2, pH 8.0) was captured to one flow cell of the chip to about 3,000 resonance units (RU) using sample buffer supplemented with 5% DMSO as a running buffer. Serial dilutions of the assayed compounds in the running buffer at 100, 50 or 0.5 μM were injected for 60 s at a flow rate of 30 μL/min and association phases were recorded. Dissociation of the samples was monitored for 600 s. Data processing was performed using Biacore Insight Software (Biacore, GE Healthcare). Sensorgrams recorded on a SA flow cell without captured protein were subtracted from sensorgrams recorded on the SOS1 surface. Blank injections of running buffer were used for double referencing and solvent correction was applied to all sample sensorgrams to correct for buffer mismatches. KDs were estimated using a kinetic or steady state, where applicable, fitting model describing a reversible equilibrium with 1:1 binding between SOS1 and the compound.
human SOS1, sequence (Q07889 564-1049): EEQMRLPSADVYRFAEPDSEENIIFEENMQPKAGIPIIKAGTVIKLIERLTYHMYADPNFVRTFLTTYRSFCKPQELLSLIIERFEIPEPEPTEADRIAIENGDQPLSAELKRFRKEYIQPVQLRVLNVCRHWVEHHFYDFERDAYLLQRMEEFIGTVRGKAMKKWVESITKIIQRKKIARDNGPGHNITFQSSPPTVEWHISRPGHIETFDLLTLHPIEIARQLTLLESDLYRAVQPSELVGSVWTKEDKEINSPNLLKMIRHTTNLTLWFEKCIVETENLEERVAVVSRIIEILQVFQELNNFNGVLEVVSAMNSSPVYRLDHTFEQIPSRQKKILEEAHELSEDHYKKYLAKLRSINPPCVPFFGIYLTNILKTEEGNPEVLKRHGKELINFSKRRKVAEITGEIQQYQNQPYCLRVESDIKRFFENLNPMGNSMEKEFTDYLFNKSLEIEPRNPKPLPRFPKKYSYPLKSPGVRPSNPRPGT

SOS1:KRAS (G12C) interaction, sequence (Q07889 564-1049, stated change not applied): as the sequence (Q07889 564-1049) above

Take `C[C@@H](Nc1nn(C)c(=O)c2cc(=O)n(C3(C(F)F)CC3)cc12)c1cccc(C(F)F)c1F` [Example 43, (R)-4-((1-(3-(difluoromethyl)-2-fluorophenyl)ethyl)amino)-6-(1-(difluoromethyl)cyclopropyl)-2-methyl-2,6-dihydropyrido[3,4-d]pyridazine-1,7-dione]: the 50% inhibitory concentration (IC50) in test [1] was 0.0605 µM. For the same molecule, the Kd in test [2] came out at 0.024 µM.

`C[C@@H](Nc1nn(C)c(=O)c2cc(=O)n(C3CCOCC3)cc12)c1cccc2c(F)coc12` [Example 46, (R)-4-((1-(3-fluorobenzofuran-7-yl)ethyl)amino)-2-methyl-6-(tetrahydro-2H-pyran-4-yl)-2,6-dihydropyrido[3,4-d]pyridazine-1,7-dione]: the IC50 in test [1] worked out at 0.0624 µM. In addition, in test [2], the Kd came out at 0.021 µM.

For the molecule `C[C@@H](Nc1nn(C)c(=O)c2cc(=O)n(C3CCOCC3)cc12)c1cccc2c1OCC2(F)F` [Example 47, (R)-4-((1-(3,3-difluoro-2,3-dihydrobenzofuran-7-yl)ethyl)amino)-2-methyl-6-(tetrahydro-2H-pyran-4-yl)-2,6-dihydropyrido[3,4-d]pyridazine-1,7-dione], the IC50 in test [1] stood at 0.0824 µM. In addition, the Kd in test [2] stood at 0.006 µM.

As to `CC(=O)c1c(=O)n(C2CC2)cc2c(N[C@H](C)c3cccc(C(F)(F)F)c3C)nn(C)c(=O)c12` [Example 48, (R)-8-acetyl-6-cyclopropyl-2-methyl-4-((1-(2-methyl-3-(trifluoromethyl)phenyl)ethyl)amino)-2,6-dihydropyrido[3,4-d]pyridazine-1,7-dione], in test [1], the IC50 amounted to 0.192 µM. In test [2], the Kd came to 0.075 µM.

On to `COc1c(=O)n(C2CCCCC2)cc2c(N[C@H](C)c3cccc(C(F)F)c3F)nn(C)c(=O)c12` [Example 49, (R)-6-cyclohexyl-4-((1-(3-(difluoromethyl)-2-fluorophenyl)ethyl)amino)-8-methoxy-2-methyl-2,6-dihydropyrido[3,4-d]pyridazine-1,7-dione], for which the IC50 in test [1] was determined as 0.0513 µM. Moreover, the equilibrium dissociation constant (Kd) in test [2] amounted to 0.013 µM.

On to `C[C@@H](Nc1nn(C)c(=O)c2cc(=O)n(C34CC(N5CCOCC5)(C3)C4)cc12)c1cccc(C(F)F)c1F` [Example 50, (R)-4-((1-(3-(difluoromethyl)-2-fluorophenyl)ethyl)amino)-2-methyl-6-(3-morpholinobicyclo[1.1.1]pentan-1-yl)-2,6-dihydropyrido[3,4-d]pyridazine-1,7-dione], for which, in test [1], the IC50 was found to be 0.0544 µM. The Kd in test [2] was found to be 0.029 µM.

`C[C@@H](Nc1nn(C)c(=O)c2cc(=O)n(C3CC4(COC4)C3)cc12)c1cccc(C(F)F)c1F` [Example 51, (R)-4-((1-(3-(difluoromethyl)-2-fluorophenyl)ethyl)amino)-2-methyl-6-(2-oxaspiro[3.3]heptan-6-yl)pyrido[3,4-d]pyridazine-1,7(2H,6H)-dione]: the IC50 in test [1] is 0.0473 µM. The Kd in test [2] is 0.017 µM.

Consider `C[C@@H](Nc1nn(C)c(=O)c2cc(=O)n(C3CC3)cc12)c1cc(Br)cs1` [Example 56, (R)-4-((1-(4-bromothiophen-2-yl)ethyl)amino)-6-cyclopropyl-2-methyl-2,6-dihydropyrido[3,4-d]pyridazine-1,7-dione], for which the IC50 in test [1] was determined as 1.93 µM. The Kd in test [2] amounted to 0.53 µM.

With `CNCc1ccccc1-c1csc([C@@H](C)Nc2nn(C)c(=O)c3cc(=O)n(C4CC4)cc23)c1` [Example 57, (R)-6-cyclopropyl-2-methyl-4-((1-(4-(2-((methylamino)methyl)phenyl)thiophen-2-yl)ethyl)amino)-2,6-dihydropyrido[3,4-d]pyridazine-1,7-dione], the concentration for half-maximal inhibition (IC50) in test [1] is 0.0219 µM. For the same molecule, in test [2], the Kd was found to be 0.008 µM.

Turning to `C[C@@H](Nc1nn(C)c(=O)c2cc(=O)n(C3CCOCC3)cc12)c1cccc2sccc12` [Example 62, (R)-4-((1-(benzo[b]thiophen-4-yl)ethyl)amino)-2-methyl-6-(tetrahydro-2H-pyran-4-yl)-2,6-dihydropyrido[3,4-d]pyridazine-1,7-dione], in test [1], the IC50 stood at 0.0753 µM. Besides, in test [2], the Kd was 0.013 µM.

In the case of `C[C@@H](Nc1nn(C)c(=O)c2cc(=O)n(C3CC3)cc12)c1cccc2sccc12` [Example 64, (R)-4-((1-(benzo[b]thiophen-4-yl)ethyl)amino)-6-cyclopropyl-2-methyl-2,6-dihydropyrido[3,4-d]pyridazine-1,7-dione], the IC50 in test [1] worked out at 0.126 µM. Besides, the Kd in test [2] was 0.031 µM.

On to `C[C@@H](Nc1nn(C)c(=O)c2cc(=O)n(C3(C#N)CC3)cc12)c1cccc(C(F)F)c1F` [Example 66, (R)-1-(4-((1-(3-(difluoromethyl)-2-fluorophenyl)ethyl)amino)-2-methyl-1,7-dioxo-1,7-dihydropyrido[3,4-d]pyridazin-6(2H)-yl)cyclopropane-1-carbonitrile], for which the IC50 in test [1] was found to be 0.0725 µM. For the same molecule, the equilibrium dissociation constant (Kd) in test [2] worked out at 0.026 µM.

On to `C[C@@H](Nc1nn(C)c(=O)c2cc(=O)n(C3CCOCC3)cc12)c1cccc2c1CCC2(F)F` [Example 67, (R)-4-((1-(1,1-difluoro-2,3-dihydro-1H-inden-4-yl)ethyl)amino)-2-methyl-6-(tetrahydro-2H-pyran-4-yl)pyrido[3,4-d]pyridazine-1,7(2H,6H)-dione], for which the half-maximal inhibitory concentration (IC50) in test [1] is 0.0246 µM. The Kd in test [2] is 0.01 µM.

On to `C[C@H](Nc1nn(C)c(=O)c2cc(=O)n(C3CCOCC3)cc12)c1cccc2c1CCC2(F)F` [Example 68, (S)-4-((1-(1,1-difluoro-2,3-dihydro-1H-inden-4-yl)ethyl)amino)-2-methyl-6-(tetrahydro-2H-pyran-4-yl)pyrido[3,4-d]pyridazine-1,7(2H,6H)-dione], for which the IC50 in test [1] worked out at 1.71 µM. The dissociation constant (Kd) in test [2] turned out to be 1.49 µM.

For the molecule `C[C@@H](Nc1nn(C)c(=O)c2cc(=O)n(C34CC(C(=O)N(C)C)(C3)C4)cc12)c1cccc(C(F)F)c1F` [Example 69, (R)-3-(4-((1-(3-(difluoromethyl)-2-fluorophenyl)ethyl)amino)-2-methyl-1,7-dioxo-1,7-dihydropyrido[3,4-d]pyridazin-6(2H)-yl)-N,N-dimethylbicyclo[1.1.1]pentane-1-carboxamide], the IC50 in test [1] was 0.0348 µM. In addition, the Kd in test [2] is 0.01 µM.

Regarding `C[C@@H](Nc1nn(C)c(=O)c2cc(=O)n(C3(C(F)F)CC3)cc12)c1cccc(C(F)(F)C(C)(C)O)c1F` [Example 70, (R)-4-((1-(3-(1,1-difluoro-2-hydroxy-2-methylpropyl)-2-fluorophenyl)ethyl)amino)-6-(1-(difluoromethyl)cyclopropyl)-2-methyl-2,6-dihydropyrido[3,4-d]pyridazine-1,7-dione], the IC50 in test [1] turned out to be 0.0167 µM. The Kd in test [2] is 0.012 µM.

On to `C[C@@H](Nc1nn(C)c(=O)c2cc(=O)n(C3(C(F)(F)F)CC3)cc12)c1cccc(C(F)F)c1F` [Example 71, (R)-4-((1-(3-(difluoromethyl)-2-fluorophenyl)ethyl)amino)-2-methyl-6-(1-(trifluoromethyl)cyclopropyl)-2,6-dihydropyrido[3,4-d]pyridazine-1,7-dione], for which the IC50 in test [1] came out at 0.0698 µM. Further, the Kd in test [2] was 0.031 µM.

In the case of `C[C@@H](Nc1nn(C)c(=O)c2c(Br)c(=O)n(C3(C(F)F)CC3)cc12)c1cccc(C(F)F)c1F` [Example 72, (R)-8-bromo-4-((1-(3-(difluoromethyl)-2-fluorophenyl)ethyl)amino)-6-(1-(difluoromethyl)cyclopropyl)-2-methyl-2,6-dihydropyrido[3,4-d]pyridazine-1,7-dione], the IC50 in test [1] came to 0.0683 µM. Moreover, in test [2], the Kd was determined as 0.06 µM.

For the molecule `COc1c(=O)n(C2(C(F)F)CC2)cc2c(N[C@H](C)c3cccc(C(F)F)c3F)nn(C)c(=O)c12` [Example 73, (R)-4-((1-(3-(difluoromethyl)-2-fluorophenyl)ethyl)amino)-6-(1-(difluoromethyl)cyclopropyl)-8-methoxy-2-methyl-2,6-dihydropyrido[3,4-d]pyridazine-1,7-dione], in test [1], the IC50 was determined as 0.0608 µM. Further, the Kd in test [2] turned out to be 0.027 µM.

With `Cc1c(=O)n(C2(C(F)F)CC2)cc2c(N[C@H](C)c3cccc(C(F)F)c3F)nn(C)c(=O)c12` [Example 74, (R)-4-((1-(3-(difluoromethyl)-2-fluorophenyl)ethyl)amino)-6-(1-(difluoromethyl)cyclopropyl)-2,8-dimethyl-2,6-dihydropyrido[3,4-d]pyridazine-1,7-dione], in test [1], the IC50 worked out at 0.091 µM. For the same molecule, the Kd in test [2] turned out to be 0.069 µM.
